{"source": "patent US20210177823A1", "about": "“NEUROMODULATING COMPOSITIONS AND RELATED THERAPEUTIC METHODS FOR THE TREATMENT OF CANCER” (Flagship Pioneering Innovations V, Inc., priority 2016, published 2021)", "key": {"MIAPaCa2 Fluc cells": {"tested_on": "MIAPaCa2 Fluc cells", "test": "Orthotopic MIAPACA2 pancreatic cancer model, tumor weight at end of study", "format": "in vivo, Nude mice (Nu/Nu)", "conditions": "daily IP, three weeks after initiation of dosing; for reduction in tumor weight at the end of study: compared to vehicle-treated group", "description": "MIAPaCa2 Fluc cells were grown in DMEM tissue culture media with 10% fetal calf serum, 2.5% Horse Serum, 1% penicillin/streptomycin and Puromycin (20 ug/mL). On the day of implantation, cells were washed in PBS, trypsinized and resuspended at a density of 2×10^6 cells/ml in a Matrigel solution prior to being implanted into the pancreas a volume of 0.05 mL using a 25 G needle. Nude mice (Nu/Nu) were anesthetized and the pancreas exposed via peritoneal incision and physical displacement of the spleen. Cells were injected into the pancreas in a total volume of 0.05 mL and the surgical wound closed with VetBond. Bioluminescence was assessed by administration of D-luciferin and imaging on an IVIS system. Mice with leakage of bioluminescent signal immediately after surgery were removed from study. Mice were randomized into groups of equal mean bioluminescence approximately 14 days post-implant. […] One group of mice received haloperidol alone, a second group received gemcitabine chemotherapy (the standard of care for human pancreatic cancer treatment), and a third group received a combination of haloperidol and gemcitabine. For groups also receiving gemcitabine, gemcitabine was dosed 50 mg/kg IP daily. Tumor growth was determined bi-weekly with bioluminescent measurement. The study was terminated three weeks after initiation of drug dosing. At termination, mice were sacrificed and pancreas collected and weighed."}, "[1]": {"tested_on": "NCI-H82 small cell lung cancer cells", "test": "Cancer cell growth in low-serum spheroid culture, Cell Titer Glo readout", "format": "cell-based", "conditions": "at low micromolar concentration; tested 10 nM-10 uM", "description": "(§1) Cancer cell lines were grown in appropriate cell culture medium. On day 0, cells were plated in black organogenix nanocult 96-well plates with low-bind honeycomb pattern. Cells were plated in a low serum medium to increase the dynamic range observable for growth promotion. Within three days spheroids were visible. On day 1 post plating, compounds were added at a range of doses to the cells, between mid-nanomolar and low micromolar, spanning at least a 100× dose range. On day 4 post plating, number of cells are quantified by staining with Cell Titer Glo and reading on a plate reader. We observed that adenosine at 10-200 μM enhances the growth of multiple pancreatic cancer cell lines (CFPAC, PANC-1, PL45, ASPC-1, CAPAN-1, CAPAN-2) by at least 10% increased signal over 24 hours than untreated cells. Upon follow-up of the adenosine pathway, we performed a similar assay with chemical antagonists of adenosine receptors at a range of concentrations between 10 nM-10 uM."}, "[2]": {"tested_on": "patient-derived xenograft tumors from patient 5197", "test": "SCLC PDX subcutaneous tumor with implanted microdose drug delivery device, immunohistochemistry (CC3, phospho-AKT)", "format": "in vivo, nude mice", "conditions": "intratumoral device reservoir, 24 hours in situ; patient 5197 PDX", "description": "(§2) Small cell lung cancer cells derived from a human donor (CrownBio, San Diego Calif.) were injected subcutaneously into the flanks of nude mice. Tumors were grown to a size of approximately 6-10 mm before device implantation.\n(§3) Microdose drug delivery devices were manufactured as described in Jonas et al., Sci. Transl. Med. 7, 284ra57 (2015). Briefly, cylindrical, micro-scale devices with 0.82 (diameter)×4 mm (length) were manufactured from medical-grade Delrin acetyl resin blocks (DuPont) by micromachining (CNC Micromachining Center, Cameron). Circular reservoirs were shaped on the outer surface of devices in dimensions of 230 um (diameter)×250 um (depth). Drug-polymer mixtures were packed into device reservoirs using a tapered, metal needle (Electron Microscopy Sciences) until the reservoirs were completely filled.\nDevices were implanted directly into the mouse tumor using a 19-gauge spinal biopsy needle (Angiotech) and a retractable needle obturator to push the device into the tissue. Devices containing the drugs remained in situ for 24 hours.\n(§4) The flank tumor was excised and the tissue containing the device was fixed for 24 hours in 10% formalin and perfused with paraffin. This specimen was sectioned using a standard microtome and tissue sections were collected from each reservoir. Sections were antibody-stained by standard immunohistochemistry using antibodies against cleaved-caspase-3 (CC3), KI-67, and phospho-AKT (Cell Signaling) and scored using an ImageJ image (v1.48) analysis algorithm in a blinded manner."}, "[3]": {"tested_on": "Glioblastoma lines A172, LN-18, T98G, LN-229, U87 MG, and U118 MG", "test": "Colony formation assay in glioblastoma cell lines (Cyto60 fluorescence)", "format": "cell-based", "conditions": "1 μM to 20 μM, day 9, LN-229, U87, U118", "description": "Glioblastoma lines A172, LN-18, T98G, LN-229, U87 MG, and U118 MG were passaged in culture per manufacturer's recommendations.\nOn day 0 of the experiment, cells were plated in 24 well plates at a density of 500 cells per well in triplicate. On day 1, DRD2 antagonists haloperidol and L741,626 were added to the wells at a range of concentrations between 1 μM and 20 μM. Media was changed every three days. On day 9 of the experiment, cells were fixed with formalin and stained with Cyto60 (a nucleic acid stain). Fluorescence was read on a Licor-Odyssey imager to assess the number of viable cells in the assay."}, "[4]": {"tested_on": "patient-derived xenograft tumors from patient 5217", "test": "SCLC PDX subcutaneous tumor with implanted microdose drug delivery device, immunohistochemistry", "format": "in vivo, nude mice", "conditions": "patient 5217 PDX, ~10× lower DRD2 mRNA than patient 5197; device 24 hours in situ", "description": "as §2, §3\nDevices were implanted directly into the mouse tumor using a 19-gauge spinal biopsy needle (Angiotech) and a retractable needle obturator to push the device into the tissue. […]\nas §4, with “This specimen was sectioned using a standard microtome and tissue sections were collected from each reservoir.” left out"}, "[5]": {"tested_on": "BXPC3 pancreatic cancer cells", "test": "Cancer cell growth in low-serum spheroid culture, Cell Titer Glo readout", "format": "cell-based", "conditions": "at low micromolar concentration; tested 10 nM-10 uM", "description": "as §1"}, "[6]": {"tested_on": "pancreatic cancer cell lines (CFPAC, PANC-1, PL45, ASPC-1, CAPAN-1, CAPAN-2)", "test": "Cancer cell growth in low-serum spheroid culture, Cell Titer Glo readout", "format": "cell-based", "conditions": "adenosine at 10-200 μM, over 24 hours"}}, "note": "Entries after “also recorded” stand apart in the source; their conditions may differ.", "data": [{"smiles": "Nc1ccn([C@@H]2O[C@H](CO)[C@@H](O)C2(F)F)c(=O)n1", "note": "[gemcitabine]", "values": [{"measurement": "reduction in tumor weight at the end of study", "setting": "MIAPaCa2 Fluc cells", "value": "equivalent"}]}, {"smiles": "O=C(Cc1ccccc1)Nc1nc2ccc(Cl)cc2c2nc(-c3ccco3)nn12", "note": "[MRS-1220]", "values": [{"measurement": "inhibition of growth of NCI-H82 small cell lung cancer cells", "setting": "[1]", "value": "inhibited the growth"}]}, {"smiles": "N.N.[Cl][Pt][Cl]", "note": "[cisplatin]", "values": [{"measurement": "cell killing as measured by CC3 positive tissue", "setting": "[2]", "value": "minimal cell killing"}]}, {"smiles": "OC1(c2ccc(Cl)cc2)CCN(Cc2c[nH]c3ccccc23)CC1", "note": "[L-741,626]", "values": [{"measurement": "cell killing as measured by CC3 positive tissue", "setting": "[2]", "value": "dose-dependent cell killing"}, {"measurement": "phospho-AKT staining gradient (dopamine receptor signaling)", "setting": "[2]", "value": "negative gradient"}, {"measurement": "number of glioblastoma cells growing in culture compared to DMSO control", "setting": "[3]", "value": "reduce the number of glioblastoma cells"}, {"measurement": "impact of treatment on tumor", "setting": "[4]", "value": "at all not impacted; also recorded: not impacted at all"}]}, {"smiles": "CCCn1c(=O)c2[nH]c(C34CC5CC(CC3C5)C4)nc2n(CCC)c1=O", "note": "[KW3902]", "values": [{"measurement": "inhibition of growth of NCI-H82 small cell lung cancer cells", "setting": "[1]", "value": "inhibited the growth"}, {"measurement": "inhibition of growth of BXPC3 pancreatic cancer cells", "setting": "[5]", "value": "inhibited the growth"}]}, {"smiles": "Nc1ncnc2c1ncn2[C@@H]1O[C@H](CO)[C@@H](O)[C@H]1O", "note": "[adenosine]", "values": [{"measurement": "enhancement of growth, increased signal than untreated cells", "setting": "[6]", "value": "at least 10%"}]}, {"smiles": "O=C(CCCN1CCC(O)(c2ccc(Cl)cc2)CC1)c1ccc(F)cc1", "note": "[haloperidol]", "values": [{"measurement": "number of glioblastoma cells growing in culture compared to DMSO control", "setting": "[3]", "value": "reduce the number of glioblastoma cells"}, {"measurement": "reduction in tumor weight at the end of study", "setting": "MIAPaCa2 Fluc cells", "value": "~50", "unit": "%"}, {"measurement": "tumor weight at the end of study", "setting": "MIAPaCa2 Fluc cells; vehicle 300 mg", "value": 150, "unit": "mg"}]}]}
